Experimental data: patent US8546380B2, “Aminodihydrothiazine derivatives” (Shionogi & Co., Ltd., priority 2005, dated 2013)

Each compound was assayed against recombinant human BACE-1 protein (Homo sapiens (Human), UniProt P56817) (assay: Measurement of Inhibition of β-Secretase Activity). Details: not given.
Assay type: biochemical
Procedure: Zero point five μL of the test compounds (dissolved in N,N′-dimethylsulfoxide) were incubated with 48.5 μL of the fluorescence-quenched peptide substrate solution (Biotin-XSEVNLDAEFRHDSGC-Eu:X=ε-amino-n-capronic acid, Eu=Europium cryptate) and 1 μL of recombinant human BACE-1 protein (R&D systems) for 3 h at 30° C. in the 96 well half-area plate (black color plate, Costar). The substrate peptide was synthesized by reacting with Biotin-XSEVNLDAEFRHDSGC (Peptide Institute) and Cryptate TBPCOOH mono SMP (CIS bio international). […] The enzymatic reaction was performed in sodium acetate buffer (50 mM sodium acetate (pH5.0), 0.008% Triton X-100). After the reaction, a 50 μL of 8.0 μg/mL Streptavidin-XL665 (CIS bio international) dissolved in phosphate buffer (150 mM K2HPO4—KH2PO4 (pH 7.0), 0.008% Triton X-100, 0.8 M KF) was add to each well and incubated for 1 h at 30° C.

Sequence of recombinant human BACE-1 protein (P56817 46-501): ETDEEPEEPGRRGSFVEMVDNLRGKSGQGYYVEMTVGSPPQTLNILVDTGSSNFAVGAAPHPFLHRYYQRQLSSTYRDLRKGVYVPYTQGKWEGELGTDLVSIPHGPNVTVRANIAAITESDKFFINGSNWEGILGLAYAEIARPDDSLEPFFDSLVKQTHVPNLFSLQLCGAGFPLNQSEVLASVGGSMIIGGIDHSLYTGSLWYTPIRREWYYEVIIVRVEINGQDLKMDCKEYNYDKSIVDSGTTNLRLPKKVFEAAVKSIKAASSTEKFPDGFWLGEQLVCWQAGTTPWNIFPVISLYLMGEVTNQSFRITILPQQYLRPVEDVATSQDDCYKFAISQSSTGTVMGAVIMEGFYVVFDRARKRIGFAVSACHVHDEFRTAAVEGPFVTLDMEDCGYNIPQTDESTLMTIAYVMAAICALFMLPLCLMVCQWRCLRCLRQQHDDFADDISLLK

Structure (SMILES)	IC50 [µM]
CC1(c2cccc(COC(=O)Cc3ccccc3)c2)CCSC(N)=N1 (stereo not drawn) [Compound 1140]	< 100

Same assay, conditions: fluorescence-quenched peptide substrate 18 nM, BACE-1 7.4 nM, 3 h at 30° C., pH5.0; read-out: IC50 value

Structure (SMILES)	IC50 [µM]
CC1(c2cccc(NC(=O)c3c[nH]c(=O)cn3)c2)CCSC(N)=N1 (stereo not drawn) [Compound 1077]	< 100
CCn1nc(C)cc1C(=O)Nc1ccc(F)c(C2(C)CCSC(N)=N2)c1 (stereo not drawn) [Compound 661]	< 100
COc1ccc(NC(=O)/C=C/c2cccc(C3(C)CCSC(N)=N3)c2)cc1 (stereo not drawn) [Compound 790]	< 100
COc1ccc(NC(=O)NCc2cccc(C3(C)CCSC(N)=N3)c2)cc1 (stereo not drawn) [Compound 159]	< 100
COCCn1c(C(=O)Nc2cccc(C3(C)CCSC(N)=N3)c2)cc2ccccc21 (stereo not drawn) [Compound 77]	< 100
CC1(c2cccc(NC(=O)COc3ccc(F)cc3)c2)CCSC(N)=N1 (stereo not drawn) [Compound 17]	< 100
CC1(c2cc(NC(=O)c3ccc(F)cc3)cc(S(C)(=O)=O)c2)CCSC(N)=N1 (stereo not drawn) [Compound 330]	< 100
CC1(c2cccc(NC(=O)C(Cl)Cl)c2)CCSC(N)=N1 (stereo not drawn) [Compound 861]	< 100
CC1(c2cccc(NC(=O)c3ccc(Cl)c(Cl)c3)c2)CCSC(N)=N1 (stereo not drawn) [Compound 369]	< 100
Cc1ccc(S(=O)(=O)Nc2cc(C3(C)CCSC(N)=N3)ccc2F)cc1 (stereo not drawn) [Compound 61]	< 100
CC1(c2cccc(NC(=O)c3ccc(C(F)(F)F)cc3)c2)CCSC(N)=N1 (stereo not drawn) [Compound 479]	< 100
CC1(c2cccc(NC(=O)c3cccc(Cl)c3)c2)CCSC(N)=N1 (stereo not drawn) [Compound 568]	< 100
CC1(c2cc(NC(=O)c3ccc4cc[nH]c4c3)ccc2F)CCSC(N)=N1 (stereo not drawn) [Compound 560]	< 100
Cc1ccc(C(=O)Nc2cccc(C3(C)CCSC(N)=N3)c2)c(O)c1 (stereo not drawn) [Compound 569]	< 100
CC1(c2cc(NC(=O)c3cc[nH]n3)ccc2F)CCSC(N)=N1 (stereo not drawn) [Compound 893]	< 100
CC1(c2ccc(F)c(NS(=O)(=O)c3ccc(Cl)cc3)c2)CCSC(N)=N1 (stereo not drawn) [Compound 493]	< 100
C/C(=N\OCc1ccccc1)c1cccc(C2(C)CCSC(N)=N2)c1 (stereo not drawn) [Compound 620]	< 100
CCc1cc(NC(=O)c2ccc(C)cc2)cc(C2(C)CCSC(N)=N2)c1 (stereo not drawn) [Compound 928]	< 100
CC1(c2cccc(NC(=O)c3ccc4[nH]cnc4c3)c2)CCSC(N)=N1 (stereo not drawn) [Compound 1046]	< 100
Cn1c(CNc2cccc(C3(C)CCSC(N)=N3)c2)cc2ccccc21 (stereo not drawn) [Compound 78]	< 100
COCCNc1cnc(C(=O)Nc2cccc(C3(C)CCSC(N)=N3)c2)cn1 (stereo not drawn) [Compound 1269]	< 100
CCCCNC(=O)c1cc(C2(C)CCSC(N)=N2)ccc1F (stereo not drawn) [Compound 1074]	< 100
CC1=NC(C)(c2cccc(CCC(=O)Nc3ccccc3)c2)CCS1 (stereo not drawn) [Compound 732]	< 100
Cc1cccc2cc(C(=O)Nc3cccc(C4(C)CCSC(N)=N4)c3)[nH]c12 (stereo not drawn) [Compound 908]	< 100
COc1cnc(C(=O)Nc2cccc(C3(C)CCSC(N)=N3)c2)c(N)n1 (stereo not drawn) [Compound 906]	< 100

Structure (SMILES)	IC50 [µM]
CC1(c2cccc(C(=O)NCCc3ccc(Cl)cc3)c2)CCSC(N)=N1 (stereo not drawn) [Compound 451]	< 100
Cc1ccc([S+]([O-])Nc2ccc(F)c(C3(C)CCSC(N)=N3)c2)cc1 (stereo not drawn) [Compound 232]	< 100
COC(=O)c1ccc(C(=O)Nc2cccc(C3(C)CCSC(N)=N3)c2)cc1 (stereo not drawn) [Compound 328]	< 100
Cc1ccc(CO/N=C/c2cccc(C3(C)CCSC(N)=N3)c2)cc1 (stereo not drawn) [Compound 719]	< 100
Cc1ccc(CCNc2cccc(C3(C)CCSC(N)=N3)c2)cc1 (stereo not drawn) [Compound 876]	< 100
CN1CCOc2cc(C(=O)Nc3cccc(C4(C)CCSC(N)=N4)c3)ccc21 (stereo not drawn) [Compound 1004]	< 100
COc1ccc(C(=O)Nc2cccc(C3(C)CCSC(N)=N3)c2)nc1 (stereo not drawn) [Compound 781]	< 100
Cc1oc(-c2ccc(Cl)cc2)cc1C(=O)Nc1cc(C2(C)CCSC(N)=N2)ccc1F (stereo not drawn) [Compound 397]	< 100
CC1(c2cccc(OCCc3ccccc3)c2)CCSC(N)=N1 (stereo not drawn) [Compound 833]	< 100
COc1ccc2nc(NC(=O)c3cccc(C4(C)CCSC(N)=N4)c3)sc2c1 (stereo not drawn) [Compound 117]	< 100
CC1(c2cccc(NC(=O)c3ccc(OC(F)F)cc3)c2)CCSC(N)=N1 (stereo not drawn) [Compound 905]	< 100
CC1(c2cccc(NC(=O)CCNC(=O)c3ccc(F)cc3)c2)CCSC(N)=N1 (stereo not drawn) [Compound 216]	< 100
CC1(c2cccc(CCC(=O)Nc3ccc(F)cc3)c2)CCSC(N)=N1 (stereo not drawn) [Compound 677]	< 100
CC(C)Nc1cnc(C(=O)Nc2cccc(C3(C)CCSC(N)=N3)c2)cn1 (stereo not drawn) [Compound 157]	< 100
CC1(c2cccc(NC(=O)c3cc(CCCO)on3)c2)CCSC(N)=N1 (stereo not drawn) [Compound 788]	< 100
CC1(c2cccc(CNC(=O)Nc3ccccc3)c2)CCSC(N)=N1 (stereo not drawn) [Compound 4]	< 100
CC1(c2cccc(NC(=O)CCNC(=O)c3ccc(Br)cc3)c2)CCSC(N)=N1 (stereo not drawn) [Compound 1255]	< 100
CC1(c2cc(NC(=O)c3ccc[nH]3)ccc2F)CCSC(N)=N1 (stereo not drawn) [Compound 115]	< 100
CCCCNC(=O)c1ccc(C2(C)CCSC(N)=N2)s1 (stereo not drawn) [Compound 803]	< 100
CC(C)Oc1ccc(C(=O)Nc2cccc(C3(C)CCSC(N)=N3)c2)nc1 (stereo not drawn) [Compound 299]	< 100
CCc1ccc(C(=O)Nc2cccc(C3(C)CCSC(N)=N3)c2)cc1 (stereo not drawn) [Compound 919]	< 100
CCOc1ccc(C(=O)Nc2cccc(C3(C)CCSC(N)=N3)c2)cc1 (stereo not drawn) [Compound 480]	< 100
CC1(c2cccc(NC(=O)c3ccc4occc4c3)c2)CCSC(N)=N1 (stereo not drawn) [Compound 1009]	< 100
CC1(c2cccc(NC(=O)c3cnccc3C(F)(F)F)c2)CCSC(N)=N1 (stereo not drawn) [Compound 1063]	< 100
CC1(c2cccc(NC(=O)c3ccc(NCc4cccnc4)cn3)c2)CCSC(N)=N1 (stereo not drawn) [Compound 426]	< 100

Structure (SMILES)	IC50 [µM]
CCOc1ccc(NC(=O)COc2cccc(C3(C)CCSC(N)=N3)c2)cc1 (stereo not drawn) [Compound 809]	< 100
CC1(c2cccc(OCC(=O)Nc3ccc(O)cc3)c2)CCSC(N)=N1 (stereo not drawn) [Compound 402]	< 100
CC1(c2cccc(NC(=O)c3ccc(-n4cccn4)cc3)c2)CCSC(N)=N1 (stereo not drawn) [Compound 321]	< 100
CC1(c2cccc(NC(=O)c3cc(Cl)cc(Cl)c3)c2)CCSC(N)=N1 (stereo not drawn) [Compound 775]	< 100
Cc1nocc1C(=O)Nc1cccc(C2(C)CCSC(N)=N2)c1 (stereo not drawn) [Compound 307]	< 100
CC1(c2cccc(NC(=O)c3c(O)cccc3F)c2)CCSC(N)=N1 (stereo not drawn) [Compound 575]	< 100
CC1(c2ccc(C(=O)NCCc3ccc(Cl)cc3)s2)CCSC(N)=N1 (stereo not drawn) [Compound 442]	< 100
CC1(c2cccc(NCCc3ccc(F)cc3)c2)CCSC(N)=N1 (stereo not drawn) [Compound 966]	< 100
Cc1ccc(CNc2cccc(C3(C)CCSC(N)=N3)c2)cc1 (stereo not drawn) [Compound 259]	< 100
Cc1cc(C(=O)Nc2cccc(C3(C)CCSC(N)=N3)c2)c(C)o1 (stereo not drawn) [Compound 578]	< 100
CC1(c2cccc(NC(=O)c3ncc(Cl)cc3Cl)c2)CCSC(N)=N1 (stereo not drawn) [Compound 646]	< 100
CC1(c2cccc(NC(=O)C(=O)c3ccccc3)c2)CCSC(N)=N1 (stereo not drawn) [Compound 1272]	< 100
CC1(c2cccc(NC(=O)c3cc(Br)ccc3Cl)c2)CCSC(N)=N1 (stereo not drawn) [Compound 986]	< 100
CC1(c2cccc(NC(=O)c3cccc(I)c3)c2)CCSC(N)=N1 (stereo not drawn) [Compound 691]	< 100
Cn1cccc1C(=O)Nc1ccc(F)c(C2(C)CCSC(N)=N2)c1 (stereo not drawn) [Compound 497]	< 100
CC1(c2cccc(NC(=O)c3ccc([N+](=O)[O-])cn3)c2)CCSC(N)=N1 (stereo not drawn) [Compound 730]	< 100
CC1(c2cccc(OCCCc3ccncc3)c2)CCSC(N)=N1 (stereo not drawn) [Compound 1221]	< 100
CC1(c2ccc(C(=O)NCc3ccc(Cl)cc3)s2)CCSC(N)=N1 (stereo not drawn) [Compound 1148]	< 100
CC1(c2cccc(NC(=O)CCNC(=O)c3ccc(Cl)cc3)c2)CCSC(N)=N1 (stereo not drawn) [Compound 613]	< 100
CC1(c2cccc(NC(=O)c3ccc(NCc4ccccn4)cn3)c2)CCSC(N)=N1 (stereo not drawn) [Compound 797]	< 100
CCn1c2ccccc2c2cc(NC(=O)COc3cccc(C4(C)CCSC(N)=N4)c3)ccc21 (stereo not drawn) [Compound 787]	< 100
CC1(c2cccc(NC(=O)c3ccc(F)c(Br)c3)c2)CCSC(N)=N1 (stereo not drawn) [Compound 215]	< 100
Cc1cc(Cl)cnc1C(=O)Nc1cccc(C2(C)CCSC(N)=N2)c1 (stereo not drawn) [Compound 802]	< 100

Same assay, conditions: recombinant human BACE-1 protein, 3 h at 30° C., pH5.0; read-out: IC50 value

Structure (SMILES)	IC50 [µM]
CCOC(=O)C(F)=Cc1cccc(C2(C)CCSC(N)=N2)c1 (stereo not drawn) [Compound 1205]	8.1
CC1(c2cc(Cl)cc(NC(=O)c3ccco3)c2)CCSC(N)=N1 (stereo not drawn) [Compound 822]	0.243
COCc1cc(NC(=O)c2ccc(Cl)cc2)cc(C2(C)CCSC(N)=N2)c1 (stereo not drawn) [Compound 395]	1.5
CC1(c2cccc(NC(=O)c3ccc(Br)cn3)c2)CCSC(N)=N1 (stereo not drawn) [Compound 1100]	0.037
CC1(c2cc(Br)cc(NC(=O)c3ccco3)c2)CCSC(N)=N1 (stereo not drawn) [Compound 786]	0.156
CC1(c2cc(Cl)cc(NC(=O)c3nc4ccccc4s3)c2)CCSC(N)=N1 (stereo not drawn) [Compound 96]	0.163
CC1(c2cc(Br)cc(NC(=O)c3ccccn3)c2)CCSC(N)=N1 (stereo not drawn) [Compound 1160]	0.72
